Measured values published in the NIST ThermoML archive (doi:10.1016/j.fluid.2013.01.011).
Numbers after ± are expanded uncertainties.

How the values were obtained:
[1] = 298.15 K; 101.33 kPa; Liquid; Vibrating tube method
[2] = excess molar enthalpy (molar enthalpy of mixing); xn = mol fraction of the nth substance listed; conditions: 298.15 K, 101 kPa, Liquid, Calvet calorimetry

CCCNCCC [dipropylamine]
mass density [1]: 733.723 ± 0.25 kg/m3

CCCNCCC [dipropylamine] + CCCC(C)=O
excess molar enthalpy ([2]; x1 = 0.1056): 0.0208 ± 0.000478 kcal/mol | excess molar enthalpy ([2]; x1 = 0.1981): 0.0368 ± 0.000956 kcal/mol | excess molar enthalpy ([2]; x1 = 0.3098): 0.0519 ± 0.0012 kcal/mol | excess molar enthalpy ([2]; x1 = 0.3988): 0.0621 ± 0.00143 kcal/mol | excess molar enthalpy ([2]; x1 = 0.5023): 0.0672 ± 0.00143 kcal/mol | excess molar enthalpy ([2]; x1 = 0.5922): 0.0679 ± 0.00143 kcal/mol | excess molar enthalpy ([2]; x1 = 0.6821): 0.0638 ± 0.00143 kcal/mol | excess molar enthalpy ([2]; x1 = 0.781): 0.0545 ± 0.0012 kcal/mol | excess molar enthalpy ([2]; x1 = 0.8693): 0.0382 ± 0.000956 kcal/mol

CCCCNCCCC [dibutylamine] + CCC(C)=O
excess molar enthalpy ([2]; x1 = 0.1142): 0.0655 ± 0.00143 kcal/mol | excess molar enthalpy ([2]; x1 = 0.2078): 0.102 ± 0.00215 kcal/mol | excess molar enthalpy ([2]; x1 = 0.2985): 0.128 ± 0.00287 kcal/mol | excess molar enthalpy ([2]; x1 = 0.3978): 0.144 ± 0.00311 kcal/mol | excess molar enthalpy ([2]; x1 = 0.4956): 0.148 ± 0.00311 kcal/mol | excess molar enthalpy ([2]; x1 = 0.6001): 0.142 ± 0.00311 kcal/mol | excess molar enthalpy ([2]; x1 = 0.693): 0.126 ± 0.00263 kcal/mol | excess molar enthalpy ([2]; x1 = 0.7846): 0.0997 ± 0.00215 kcal/mol | excess molar enthalpy ([2]; x1 = 0.8802): 0.0645 ± 0.00143 kcal/mol

CCCCNCCCC [dibutylamine] + CCCCCC(C)=O
excess molar enthalpy ([2]; x1 = 0.1114): 0.0206 ± 0.000478 kcal/mol | excess molar enthalpy ([2]; x1 = 0.2189): 0.0392 ± 0.000956 kcal/mol | excess molar enthalpy ([2]; x1 = 0.3057): 0.0519 ± 0.0012 kcal/mol | excess molar enthalpy ([2]; x1 = 0.4038): 0.0607 ± 0.00143 kcal/mol | excess molar enthalpy ([2]; x1 = 0.5087): 0.0664 ± 0.00143 kcal/mol | excess molar enthalpy ([2]; x1 = 0.5962): 0.0664 ± 0.00143 kcal/mol | excess molar enthalpy ([2]; x1 = 0.7053): 0.0612 ± 0.00143 kcal/mol | excess molar enthalpy ([2]; x1 = 0.8017): 0.0497 ± 0.0012 kcal/mol | excess molar enthalpy ([2]; x1 = 0.8891): 0.033 ± 0.000717 kcal/mol

CCCNCCC [dipropylamine] + CCCCCC(C)=O
excess molar enthalpy ([2]; x1 = 0.1145): 0.0112 ± 0.000478 kcal/mol | excess molar enthalpy ([2]; x1 = 0.212): 0.021 ± 0.000478 kcal/mol | excess molar enthalpy ([2]; x1 = 0.3072): 0.0282 ± 0.000717 kcal/mol | excess molar enthalpy ([2]; x1 = 0.4034): 0.0342 ± 0.000717 kcal/mol | excess molar enthalpy ([2]; x1 = 0.4993): 0.0387 ± 0.000956 kcal/mol | excess molar enthalpy ([2]; x1 = 0.6017): 0.0406 ± 0.000956 kcal/mol | excess molar enthalpy ([2]; x1 = 0.6872): 0.038 ± 0.000956 kcal/mol | excess molar enthalpy ([2]; x1 = 0.7868): 0.0327 ± 0.000717 kcal/mol | excess molar enthalpy ([2]; x1 = 0.8796): 0.0229 ± 0.000478 kcal/mol

CCCC(C)=O [pentan-2-one]
mass density [1]: 801.522 ± 0.24 kg/m3

CCCNCCC [dipropylamine] + CC(C)=O
excess molar enthalpy ([2]; x1 = 0.1063): 0.0652 ± 0.00143 kcal/mol | excess molar enthalpy ([2]; x1 = 0.2076): 0.113 ± 0.00239 kcal/mol | excess molar enthalpy ([2]; x1 = 0.3036): 0.14 ± 0.00311 kcal/mol | excess molar enthalpy ([2]; x1 = 0.3982): 0.151 ± 0.00335 kcal/mol | excess molar enthalpy ([2]; x1 = 0.4932): 0.153 ± 0.00335 kcal/mol | excess molar enthalpy ([2]; x1 = 0.5821): 0.147 ± 0.00311 kcal/mol | excess molar enthalpy ([2]; x1 = 0.6773): 0.129 ± 0.00287 kcal/mol | excess molar enthalpy ([2]; x1 = 0.7652): 0.104 ± 0.00215 kcal/mol | excess molar enthalpy ([2]; x1 = 0.8488): 0.0707 ± 0.00167 kcal/mol

CCCCCC(C)=O [2-heptanone]
mass density [1]: 811.162 ± 0.24 kg/m3

CCCNCCC [dipropylamine] + CCC(C)=O
excess molar enthalpy ([2]; x1 = 0.1042): 0.037 ± 0.000956 kcal/mol | excess molar enthalpy ([2]; x1 = 0.1978): 0.0605 ± 0.00143 kcal/mol | excess molar enthalpy ([2]; x1 = 0.3016): 0.0798 ± 0.00167 kcal/mol | excess molar enthalpy ([2]; x1 = 0.3852): 0.0884 ± 0.00191 kcal/mol | excess molar enthalpy ([2]; x1 = 0.495): 0.0949 ± 0.00215 kcal/mol | excess molar enthalpy ([2]; x1 = 0.5459): 0.0946 ± 0.00215 kcal/mol | excess molar enthalpy ([2]; x1 = 0.5908): 0.0937 ± 0.00215 kcal/mol | excess molar enthalpy ([2]; x1 = 0.6833): 0.0851 ± 0.00191 kcal/mol | excess molar enthalpy ([2]; x1 = 0.7647): 0.0715 ± 0.00167 kcal/mol | excess molar enthalpy ([2]; x1 = 0.8559): 0.0488 ± 0.0012 kcal/mol

CCCCNCCCC [dibutylamine] + CC(C)=O
excess molar enthalpy ([2]; x1 = 0.1101): 0.106 ± 0.00239 kcal/mol | excess molar enthalpy ([2]; x1 = 0.2103): 0.165 ± 0.00359 kcal/mol | excess molar enthalpy ([2]; x1 = 0.2999): 0.204 ± 0.0043 kcal/mol | excess molar enthalpy ([2]; x1 = 0.398): 0.22 ± 0.00478 kcal/mol | excess molar enthalpy ([2]; x1 = 0.4977): 0.224 ± 0.00478 kcal/mol | excess molar enthalpy ([2]; x1 = 0.6088): 0.206 ± 0.00454 kcal/mol | excess molar enthalpy ([2]; x1 = 0.6999): 0.181 ± 0.00382 kcal/mol | excess molar enthalpy ([2]; x1 = 0.79): 0.143 ± 0.00311 kcal/mol | excess molar enthalpy ([2]; x1 = 0.8913): 0.0827 ± 0.00191 kcal/mol

CCC(C)=O [butanone]
mass density [1]: 799.969 ± 0.15 kg/m3

CCCCNCCCC [dibutylamine]
mass density [1]: 755.528 ± 0.16 kg/m3

CCCCNCCCC [dibutylamine] + CCCC(C)=O
excess molar enthalpy ([2]; x1 = 0.1111): 0.0406 ± 0.000956 kcal/mol | excess molar enthalpy ([2]; x1 = 0.2106): 0.0684 ± 0.00143 kcal/mol | excess molar enthalpy ([2]; x1 = 0.3072): 0.0908 ± 0.00191 kcal/mol | excess molar enthalpy ([2]; x1 = 0.3973): 0.102 ± 0.00215 kcal/mol | excess molar enthalpy ([2]; x1 = 0.4942): 0.108 ± 0.00239 kcal/mol | excess molar enthalpy ([2]; x1 = 0.6052): 0.104 ± 0.00239 kcal/mol | excess molar enthalpy ([2]; x1 = 0.6999): 0.0937 ± 0.00215 kcal/mol | excess molar enthalpy ([2]; x1 = 0.7881): 0.0762 ± 0.00167 kcal/mol | excess molar enthalpy ([2]; x1 = 0.8848): 0.0485 ± 0.0012 kcal/mol

CC(C)=O [acetone]
mass density [1]: 785.094 ± 0.13 kg/m3
